Data from paper PMC4710668, “Bioactivation of food genotoxicants 5-hydroxymethylfurfural and furfuryl alcohol by sulfotransferases from human, mouse and rat: a comparative study” (Archives of Toxicology, 2014).
Values joined by “and” are separate entries in the source; they are usually repeats but may differ in a detail not shown here. Identical values can stand only once.

Tests used:
Experiment in all cases: FFA sulfoconjugation assay (N6-MF-A formation with adenosine as scavenger)
Type in all cases: biochemical
hSULT2B1a = molecular target: T1, hSULT2B1a (Homo sapiens, UniProt O00204)
T1 construct: made in house; host or cells: Salmonella typhimurium TA1538 (cytosolic fraction, not purified)
T1 sequence (O00204 1-350 isoform O00204-2): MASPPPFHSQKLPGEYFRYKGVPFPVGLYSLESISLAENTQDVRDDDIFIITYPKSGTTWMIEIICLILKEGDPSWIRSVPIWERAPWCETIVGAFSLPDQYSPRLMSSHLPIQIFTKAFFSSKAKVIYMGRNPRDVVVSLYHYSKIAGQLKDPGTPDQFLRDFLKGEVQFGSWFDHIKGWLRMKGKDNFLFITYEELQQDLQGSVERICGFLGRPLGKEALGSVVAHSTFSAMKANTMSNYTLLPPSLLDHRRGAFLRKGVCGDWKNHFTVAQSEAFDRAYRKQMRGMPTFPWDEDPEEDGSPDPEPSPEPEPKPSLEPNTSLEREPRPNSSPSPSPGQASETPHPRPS
In short: (§1)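 Enzyme source: cytosolic preparations of TA1538 bacteria expressing single SULT forms. FFA + 10 mM adenosine, 20 min, 37 °C; stopped with cold methanol. Readout: N6-MF-A by UPLC-MS/MS, three MRM transitions, labelled internal standard; SULT-free background subtracted. Quadruplicates.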

mSult1a1 = molecular target: T2, mSult1a1 (Mus musculus, UniProt P52840)
T2 construct: made in house; host or cells: Salmonella typhimurium TA1538 (cytosolic fraction, enzyme not purified)
T2 sequence (P52840 whole entry): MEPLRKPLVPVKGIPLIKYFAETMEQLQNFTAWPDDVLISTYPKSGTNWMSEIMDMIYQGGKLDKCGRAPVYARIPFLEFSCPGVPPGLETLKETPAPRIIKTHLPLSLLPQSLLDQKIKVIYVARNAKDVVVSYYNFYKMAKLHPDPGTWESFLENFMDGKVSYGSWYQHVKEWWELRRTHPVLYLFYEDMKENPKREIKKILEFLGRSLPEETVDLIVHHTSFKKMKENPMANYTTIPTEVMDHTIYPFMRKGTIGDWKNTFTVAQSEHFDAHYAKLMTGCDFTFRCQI
In short: as §1

mSult1e1 = molecular target: T3, mSult1e1 (Mus musculus, UniProt P49891)
T3 construct: made in house; host or cells: Salmonella typhimurium TA1538 (cytosolic fraction, enzyme not purified)
T3 sequence (P49891 1-295): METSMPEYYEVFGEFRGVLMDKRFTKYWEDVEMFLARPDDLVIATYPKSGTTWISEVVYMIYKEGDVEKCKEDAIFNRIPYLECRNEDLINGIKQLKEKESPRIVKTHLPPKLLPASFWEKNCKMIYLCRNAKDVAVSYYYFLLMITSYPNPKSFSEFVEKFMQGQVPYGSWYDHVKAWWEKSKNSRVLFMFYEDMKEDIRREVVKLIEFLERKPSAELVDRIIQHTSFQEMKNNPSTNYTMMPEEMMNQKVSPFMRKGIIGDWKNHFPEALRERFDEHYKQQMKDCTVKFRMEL
In short: as §1

OCc1ccco1 [FFA, furfuryl alcohol]
Rate of N6-MF-A formation (hSULT2B1a; 0.1 mM FFA): <18 fmol N ^6-MF-A/mg/min | Rate of N6-MF-A formation (hSULT2B1a; 1 mM FFA): <20 fmol N ^6-MF-A/mg/min | Rate of N6-MF-A formation (hSULT2B1a; 10 mM FFA): <44 fmol N ^6-MF-A/mg/min | Rate of N6-MF-A formation (mSult1a1; 0.1 mM FFA): 361 ± 4 fmol N ^6-MF-A/mg/min | Rate of N6-MF-A formation (mSult1a1; 1 mM FFA): 2,590 ± 20 fmol N ^6-MF-A/mg/min | Rate of N6-MF-A formation (corr.) (mSult1a1; 1 mM FFA, corrected by actual SULT concentration in the cytosolic preparation): 61,700 fmol N ^6-MF-A/mg/min and 61,700 ± 400 fmol N ^6-MF-A/mg/min | ratio of N6-MF-A formation rate, mSult1a1 vs mSult1d1 (mSult1a1; 1 mM FFA, corrected rates): about 14 fold | Rate of N6-MF-A formation (mSult1a1; 10 mM FFA): 5,140 ± 60 fmol N ^6-MF-A/mg/min | Rate of N6-MF-A formation (mSult1e1; 0.1 mM FFA): <18 fmol N ^6-MF-A/mg/min | Rate of N6-MF-A formation (mSult1e1; 1 mM FFA): 49.3 ± 1.2 fmol N ^6-MF-A/mg/min | Rate of N6-MF-A formation (mSult1e1; 10 mM FFA): 425 ± 3 fmol N ^6-MF-A/mg/min
